# ChEMBL document CHEMBL1201862, “PubChem BioAssay data set” (2004)
#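 Exposure lasted 48 hours, with cells grown in 96-well plates and compounds tested at five concentrations. GI50 is the concentration that inhibits growth by half.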 The source made the active and inactive calls. Cut-off read from the data, not from the text of the source: active = GI50 up to about 1.1 µM and inactive = higher.
# Legend:
# Test in all cases: growth of human tumour cells (NCI), 48 h
# OVCAR-4 = system: OVCAR-4
# HT-29 = system: HT-29
# OVCAR-5 = system: OVCAR-5
# MOLT-4 = system: MOLT-4
# HOP-92 = system: HOP-92
# HCC 2998 = system: HCC 2998
# SN12C = system: SN12C
# SK-MEL-28 = system: SK-MEL-28
# COLO 205 = system: COLO 205
# HL-60 = system: HL-60
# SK-MEL-5 = system: SK-MEL-5
# KM12 = system: KM12
# EKVX = system: EKVX
# A498 = system: A498
# ACHN = system: ACHN
# A549 = system: A549
# OVCAR-3 = system: OVCAR-3
SMILES,GI50 (OVCAR-4),GI50 (HT-29),GI50 (OVCAR-5),GI50 (MOLT-4),GI50 (HOP-92),GI50 (HCC 2998),GI50 (SN12C),GI50 (SK-MEL-28),GI50 (COLO 205),GI50 (HL-60),GI50 (SK-MEL-5),GI50 (KM12),GI50 (EKVX),GI50 (A498),GI50 (ACHN),GI50 (A549),GI50 (OVCAR-3)
CCN(CC)CC(=O)Nc1ccc2c(c1)C(=O)c1ccc(NC(=O)CN(CC)CC)cc1C2=O,39.1 µM (inactive),30.5 µM (inactive),> 100 µM (inactive),17.8 µM (inactive),85.3 µM (inactive),> 100 µM (inactive),20.1 µM (inactive),53.2 µM (inactive),15.2 µM (inactive),18.8 µM (inactive),21.2 µM (inactive),22.3 µM (inactive),89.3 µM (inactive),12.9 µM (inactive),25.5 µM (inactive),27.9 µM (inactive),–
CCOC(=O)C1=C(C(=O)OCC)C2(c3ccccc3)N(O1)c1ccccc1C2(C)C (stereo not drawn),18.7 µM (inactive),69.3 µM (inactive),99.3 µM (inactive),32 µM (inactive),–,93.1 µM (inactive),–,44.6 µM (inactive),51.5 µM (inactive),22.7 µM (inactive),56.4 µM (inactive),58.1 µM (inactive),45.4 µM (inactive),58.7 µM (inactive),–,45.5 µM (inactive),46.9 µM (inactive)
O=C1C2c3[nH]c4ccccc4c3C3CCC(c4ccccc4)CC3C2C(=O)N1c1ccccc1 (stereo not drawn),58.5 µM (inactive),> 100 µM (inactive),> 100 µM (inactive),83.8 µM (inactive),–,> 100 µM (inactive),> 100 µM (inactive),> 100 µM (inactive),> 100 µM (inactive),24.3 µM (inactive),> 100 µM (inactive),> 100 µM (inactive),> 100 µM (inactive),> 10 µM (inactive),> 100 µM (inactive),> 100 µM (inactive),> 100 µM (inactive)
COc1cc(CNc2nc3c(N)cc(C(F)(F)F)cc3nc2-c2ccccc2)cc(OC)c1OC,8.95 µM (inactive),13.4 µM (inactive),37.4 µM (inactive),8.83 µM (inactive),22.8 µM (inactive),40.6 µM (inactive),70.3 µM (inactive),53.5 µM (inactive),38.5 µM (inactive),> 10 µM (inactive),21.3 µM (inactive),18 µM (inactive),3.41 µM (inactive),61.9 µM (inactive),23.7 µM (inactive),19 µM (inactive),36.1 µM (inactive)
O=C(CCc1nnc(S)[nH]1)Nc1ccc(Cl)c(Cl)c1,58.2 µM (inactive),> 100 µM (inactive),33.8 µM (inactive),45.8 µM (inactive),53.2 µM (inactive),–,> 100 µM (inactive),71.6 µM (inactive),> 100 µM (inactive),82.4 µM (inactive),14.1 µM (inactive),21.9 µM (inactive),> 100 µM (inactive),> 100 µM (inactive),12.6 µM (inactive),40.9 µM (inactive),40.6 µM (inactive)
O=C1NC(=O)C(C(=O)C(=O)Nc2ccc(Br)cc2)C(=O)N1,> 100 µM (inactive),> 100 µM (inactive),–,> 100 µM (inactive),> 100 µM (inactive),> 100 µM (inactive),> 100 µM (inactive),> 100 µM (inactive),> 100 µM (inactive),> 100 µM (inactive),> 100 µM (inactive),–,> 100 µM (inactive),> 100 µM (inactive),> 100 µM (inactive),> 100 µM (inactive),> 100 µM (inactive)
CC[n+]1c(/C=C/c2ccc(N(CCCl)CCCl)cc2)ccc2cc(Br)ccc21,1.01 µM (active),2.86 µM (inactive),3.99 µM (inactive),1.46 µM (inactive),1.06 µM (active),1.38 µM (inactive),2.48 µM (inactive),1.21 µM (inactive),69.7 µM (inactive),0.246 µM (active),1.1 µM (active),1.68 µM (inactive),3.52 µM (inactive),1310 µM (inactive),3.17 µM (inactive),3.52 µM (inactive),0.587 µM (active)
O=C(O)Cc1cccc2c1Oc1ccccc1S2,> 100 µM (inactive),> 100 µM (inactive),–,> 100 µM (inactive),> 100 µM (inactive),> 100 µM (inactive),> 100 µM (inactive),> 100 µM (inactive),> 100 µM (inactive),> 100 µM (inactive),> 100 µM (inactive),> 100 µM (inactive),> 100 µM (inactive),> 100 µM (inactive),> 100 µM (inactive),> 100 µM (inactive),> 100 µM (inactive)
C=CC[P@]1(=O)O[C@H](c2ccccc2)C(C)N1C(C)C (stereo partly drawn),–,> 100 µM (inactive),> 100 µM (inactive),> 100 µM (inactive),> 100 µM (inactive),> 100 µM (inactive),> 100 µM (inactive),> 100 µM (inactive),> 100 µM (inactive),> 100 µM (inactive),> 100 µM (inactive),> 100 µM (inactive),> 100 µM (inactive),> 100 µM (inactive),> 100 µM (inactive),> 100 µM (inactive),> 100 µM (inactive)
